Here are results for two sequences from US6034230A, “Nucleic acids encoding myocardial peptides” (priority 1999, dated 2000).

For the data set, the system named is Balb/c mice. As to the kind of experiment: Oligodeoxynucleotides as immunostimulators: immunization with M7A-alpha peptide plus oligodeoxynucleotide, inflammatory heart disease at day 21. The data set is classed as in vivo. As to conditions: for Severity of inflammatory heart disease (score) / Prevalence of inflammatory heart disease: Table 2, day 21; for Severity of inflammatory heart disease (score): about 10 nmol oligodeoxynucleotide + about 50 micrograms M7A-alpha, score scale of Example 1; for Immunostimulatory / adjuvant activity: with M7A-alpha peptide, in the absence of Freund's complete adjuvant.

The mark [1] stands for this setting: about 10 nmol oligodeoxynucleotide as adjuvant + about 50 micrograms M7A-alpha, Freund's incomplete adjuvant, days 0 and 7.

For “GTACTGACGTTTACTCTTGG (chemistry not given here) [CpG, oligonucleotide from DNA encoding 60 kDa cysteine rich outer membrane protein of Chlamydia trachomatis, containing a CpG motif]”, the “Immunostimulatory / adjuvant activity” value is “potent immunostimulator”. Moreover, the “Severity of inflammatory heart disease (score)” value (Freund's incomplete adjuvant) is given as 1.2 ± 0.4. Moreover, under setting [1], the “Prevalence of inflammatory heart disease” value is on record as 5/5. Besides, under “negative control: about 10 nmol oligodeoxynucleotide without peptide”, the “Prevalence of inflammatory heart disease” value is given as 0/5.
Take “GTACTGAGCTTTACTCTTGG (chemistry not given here) [non-CpG, counterpart of the CpG oligo not containing the CpG motif, reference compound]”: the “Immunostimulatory / adjuvant activity” value was “hardly effective as an adjuvant”. For the setting “Freund's incomplete adjuvant”, the “Severity of inflammatory heart disease (score)” value is given as 1.0 ± 0.0. Further, under setting [1], the “Prevalence of inflammatory heart disease” value was 1/5.
